# Experimental data from patent US9113629B2, “4-amino-6-(4-substituted-phenyl)-picolinates and 6-amino-2-(4-substituted-phenyl)-pyrimidine-4-carboxylates and their use as herbicides” (DOW AGROSCIENCES LLC, priority 2013, dated 2015).
# Tests used:
# Experiment in all cases: Post-emergent Test III, herbicidal activity in wheat and barley
# Format in all cases: in vivo
# [1] = test system: PHAMI: lesser canary grass (Phalaris minor)
# How it was run: (§1)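 GR20, GR50, GR80 and GR90 come from probit analysis of visual injury scores (0 = none, 100 = complete kill) taken 21 d after treatment. Foliar application was by track sprayer delivering 187 L/ha at five rates, from high down to 1/16×, onto greenhouse plants at the 2–3 leaf stage, with solvent-blank controls.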
# [2] = test system: STEME: common chickweed (Stellaria media)
# How it was run: as §1
# [3] = test system: PAPRH: common poppy (Papaver rhoeas)
# How it was run: as §1
# [4] = test system: VIOSS: wild pansy (Viola tricolor), field violet (Viola arvensis); details: 21 days after application
# How it was run: as §1
# [5] = test system: SASKR: Russian thistle (Salsola iberica); details: 21 days after application
# How it was run: as §1
# [6] = probit analysis, dose for growth reduction of 50 percent, 21 days after application
# [7] = probit analysis, dose for growth reduction of 80 percent, 21 days after application
# [8] = probit analysis, dose for 50 percent growth reduction
# [9] = probit analysis, dose for 80 percent growth reduction
structure (smiles),measurement,setting,value
COC(=O)c1nc(-c2ccc(Cl)c(F)c2)c(F)c(N)c1Cl [Compound 216],pest or weed control at 35 g/ha,"[1]; Phalaris minor, post-emergence, 504 h, 35 g ai/ha, read-out: Visual Growth Reduction (%) 21 Days After Application PHAMI",0 to 29%
same,pest or weed control at 70 g/ha,"[1]; Phalaris minor, post-emergence, 504 h, 70 g ai/ha, read-out: Visual Growth Reduction (%) 21 Days After Application PHAMI",30 to 44%
same,pest or weed control at 140 g/ha,"[1]; Phalaris minor, post-emergence, 504 h, 140 g ai/ha, read-out: Visual Growth Reduction (%) 21 Days After Application PHAMI",75 to 84%
same,GR50 PHAMI,[1]; [6],>140 g ai/ha
same,GR80 PHAMI,[1]; [7],>140 g ai/ha
same,pest or weed control at 35 g/ha,"[2]; Stellaria media, post-emergence, 504 h, 35 g ai/ha, read-out: Visual Growth Reduction (%) 21 Days After Application STEME",30 to 44%
same,pest or weed control at 70 g/ha,"[2]; Stellaria media, post-emergence, 504 h, 70 g ai/ha, read-out: Visual Growth Reduction (%) 21 Days After Application STEME",30 to 44%
same,pest or weed control at 140 g/ha,"[2]; Stellaria media, post-emergence, 504 h, 140 g ai/ha, read-out: Visual Growth Reduction (%) 21 Days After Application STEME",75 to 84%
same,GR50 STEME,[2]; [6],52 g ai/ha
same,GR80 STEME,[2]; [7],>140 g ai/ha
same,pest or weed control at 35 g/ha,"[3]; Papaver rhoeas, post-emergence, 504 h, 35 g ai/ha, read-out: Visual Growth Reduction (%) 21 Days After Application PAPRH",95 to 100%
same,pest or weed control at 70 g/ha,"[3]; Papaver rhoeas, post-emergence, 504 h, 70 g ai/ha, read-out: Visual Growth Reduction (%) 21 Days After Application PAPRH",95 to 100%
same,pest or weed control at 140 g/ha,"[3]; Papaver rhoeas, post-emergence, 504 h, 140 g ai/ha, read-out: Visual Growth Reduction (%) 21 Days After Application PAPRH",95 to 100%
same,GR50 PAPRH,[3]; [6],1 g ai/ha
same,GR80 PAPRH,[3]; [7],1 g ai/ha
COC(=O)c1nc(-c2ccc(Br)c(F)c2)c(F)c(N)c1Cl [Compound 49],pest or weed control at 35 g/ha,"[4]; Viola tricolor, post-emergence, 504 h, 35 g ai/ha, read-out: Visual Gorowth Reduction (%) 21 days After Application VIOSS",95 to 100%
same,pest or weed control at 70 g/ha,"[4]; Viola tricolor, post-emergence, 504 h, 70 g ai/ha, read-out: Visual Gorowth Reduction (%) 21 days After Application VIOSS",95 to 100%
same,GR50 VIOSS,[4]; [8],5 g ai/ha
same,GR80 VIOSS,[4]; [9],8 g ai/ha
same,pest or weed control at 35 g/ha,"[5]; Salsola tragus, post-emergence, 504 h, 35 g ai/ha, read-out: Visual Gorowth Reduction (%) 21 days After Application SASKR",75 to 84%
same,pest or weed control at 70 g/ha,"[5]; Salsola tragus, post-emergence, 504 h, 70 g ai/ha, read-out: Visual Gorowth Reduction (%) 21 days After Application SASKR",85 to 94%
same,GR50 SASKR,[5]; [8],1 g ai/ha
same,GR80 SASKR,[5]; [9],30 g ai/ha
